# Reference: patent US12564188B2, “Hydrogel beads for controlled uptake and release of cryoprotective agents” (The General Hospital Corporation, priority 2020, dated 2026)
# Read-outs that look alike come from different tables or passages of the source.
# Experiments:
# patients = settings: cited from earlier work
# [1] = DMSO release from hydrogel beads into saline, osmolality by micro-osmometer; format: physicochemical; settings: room temperature, 5.0 μL beads incubated in 15% DMSO
# Method: Here, beads 1-5 mm in diameter were synthesized using microfluidic droplet generation and 2% polyacrylamide/bis-acrylamide, following standard oil emulsion methods^43, and beads were synthesized using calcium alginate. Uniform calcium-alginate hydrogel beads were synthesized by dripping 5% alginate from a needle with a surrounding nitrogen gas sheath into a CaCl2 bath. Bead size and uniformity was confirmed by imaging. 5.0 μL beads were incubated for four hours in a 15% DMSO solution, then strained, blotted, and weighed. Beads were then suspended in saline for several minutes under gentle mixing, and the rate of DMSO release was measured over time by sampling the solution and measuring osmolality by micro-osmometer. The rate of release was compared with numerical simulations of diffusion based on the average bead size (FIG. 3). The diffusion coefficient of DMSO within the gel was measured to be 1.0×10^−5 cm^2s^−1 at room temperature, matching expected values^41,42.
# Expected outcomes and alternative approaches: The key metric of success is the ability to reliably add and then remove CPA from a given sample solution at tunable rates which are predicted by modeling. Bead geometry alone is sufficient to achieve gradual CPA uptake and release. The sample recovery was about 96% without any dilution in these experiments.
# [2] = DMSO implicated, co-injection with CAR T cells
compound,measurement,setting,value
"C[S+](C)[O-] [DMSO, dimethyl sulfoxide]",aphasia,patients; [2],18%
same,delirium,patients; [2],29%
same,encephalopathy,patients; [2],34%
same,tremors,patients; [2],29%
same,patients experiencing nausea and vomiting,patients; co-injection of 10-20 mL DMSO along with CAR T cells,40-60%
same,patients experiencing nausea and vomiting,patients; co-injection of approximately 10 mL DMSO along with thawed CAR T cell product,up to 60%
same,diffusion coefficient of DMSO within the gel,[1],1.0×10^−5 cm^2s^−1
